Columns and labels:
[1] = test system: S. aureus recipient strain RN4220 transformant harboring pIP1714; assay: Susceptibility to antimicrobial agents, S. aureus RN4220 transformant harboring pIP1714 (vatC, vgbB); type: cell-based, Staphylococcus aureus; details: RN4220 transformant with pIP1714, selected on BHIA with 10 μg/ml pristinamycin IIA
Method: The strain BM10711 harbored several plasmids including pIP1714 (5kb). This plasmid was […] by electroporation in a S. aureus recipient strain, RN4220. The transformant, harboring pIP1714, was selected on BHIA containing 10 μg/ml pristinamycin IIA.
Susceptibility to antimicrobial agents was determined with a disk diffusion assay and commercially available disks (Diagnostic Pasteur). Additional disks prepared in our laboratory contained streptogramin A (20 μg) or streptogramin B (40 μg).
(§1) Minimal inhibitory concentrations (MICs) of antibiotics were determined by serial twofold dilutions of antibiotics in MHA (Ericson H. M. and S. C. Sherris, ActaPathol. Microbiol. Scand., 1971, Suppl. 217:Section B).

[2] = test system: S. aureus recipient RN4220 transformants with pIP1717; assay: MIC by serial twofold dilutions in MHA, S. aureus RN4220 transformants carrying pIP1717 (vgaB); type: cell-based; details: Staphylococcus aureus; S. aureus RN4220 transformants with pIP1717 (2.4 kb HindIII-HaeIII fragment carrying vgaB), selected on 10 μg/ml erythromycin; read-out: PIIA MICs
From the text: First, the 2.4 kb HindIII-HaeIII fragment of pIP 1675, which contains only 10 nucleotide from vatB, was inserted into plasmid pOX300, and the recombinant plasmid, pIP1717 (FIG. 1B), was introduced by electroporation into the S. aureus recipient, RN4220 (Kreiswirth et al., 1983). Plasmid pOX300, also named pOX7, (Dyke and Curnock, 1989), is a hybrid of pUC18 and pE194ts and replicates in E. coli where it confers resistance to ampicillin and to erythromycin, and in S. aureus where only resistance to erythromycin is expressed. The S. aureus transformants selected on 10 μg/ml erythromycin were resistant to streptogramin A and related compounds (PIIA MICs=8-16 μg/ml). Thus, the 2.4-kb HindIII-HaeIII insert of pIP1717 (FIG. 1B) probably carried a streptogramin A resistance gene and was sequenced. The nucleotide (nucleotide) sequence of this fragment was determined by the dideoxy method (Sanger et al., 1977) with the reagents and the procedure recommended by the suppliers of the T^7 sequencing kit (Pharmacia International). Arrows indicate the direction and extent of each dideoxy-sequencing reaction. (FIG. 1B).
as §1

[3] = test system: Staphylococci resistant to synergistic mixtures of A and B compounds; details: Allignet et al., 1996; cited from earlier work

| Compound | resistance conferred by plasmid [1] | MIC [2] [µg/mL] | MIC [3] [µg/mL] |
| --- | --- | --- | --- |
| streptogramin B | resistances |  |  |
| CC1=C\[C@@H](O)CC(=O)Cc2nc(co2)C(=O)N2CCC=C2C(=O)O[C@H](C(C)C)[C@H](C)/C=C/C(=O)NC\C=C\1 [PIIA, pristinamycin IIA] |  | 8 to 16 | ≥ 8 |
| streptogramin A | resistances |  |  |

Source: US6506893B1, “Polynucleotides and their use for detecting resistance to streptogramin A or to streptogramin B and related compounds” (priority 1997, dated 2003)
